Measured values taken from patent US11958857B1, “5-(1H-indol-3-yl)-1,3-substitutedpyrimido[4,5-d]pyrimidine-2,4,7(1H,3H,8H)-trione as anticancer agents” (KING FAISAL UNIVERSITY, priority 2023, dated 2024).

What was measured:
[1] = test system: A2780 cells (ovarian cancer); assay: single dose MTT assay, A2780; format: cell-based; conditions: 10 μM, 48 h, Mean ± SEM of three independent experiments
Description: (§1) All of the target compounds 5-(1H-indol-3-yl)-1,3-substituted pyrimido[4,5-d]pyrimidine-2,4,7(1H,3H,8H)-trione derivatives (4a-c) were subjected to a single dose MTT (3-(4,5-dimethylthiazol-2-yl)-2,5-diphenyltetrazolium bromide) assay to evaluate their cytotoxicity (growth-inhibiting activities) against the breast cancer (MCF-7, MDA-MB-231), ovarian cancer (A2780, SKOV-3) and cervical cancer (HELA) cell lines. Cell lines were obtained from ATCC (American Type Culture Collection). Doxorubicin was used as a positive control.
(§2) HELA and MCF-7 cells were seeded at 10000 cells/well, while MDA-MB-231, A2780, and SKOV-3 cells were seeded at 20000 cells/well in 96 well plates to ensure that cells were non-confluent and able to proliferate over the course of the assay period. After 24 h in culture, cells were treated with test compounds 5-(1H-indol-3-yl)-1,3-substituted pyrimido[4,5-d]pyrimidine-2,4,7(1H,3H,8H)-trione derivatives (4a-c) at a single dose of 10 μM concentration and incubated for 48 h. Cells were inspected under the microscope to detect any visible morphological changes. Cells were washed with PBS, and then the cells were treated with 100 μl of 1 mg/ml fresh filtered MTT suspended in a culture medium; the plates were covered with aluminum foil and incubated for 45 min. Cell viability was marked by the conversion of MTT to the dark-blue-colored formazan by mitochondrial dehydrogenases. DMSO was added to dissolve the insoluble purple formazan product, and optical density (OD) was measured by using a spectrophotometer at a wavelength of […]. The assay was performed in the dark as MTT is light-sensitive. Control wells of culture medium only (without cells) were included as blanks for absorbance measurements.
(§3) Cell viability was calculated according to the following formula: % Cell viability=(OD sample-OD blank/OD control-OD blank)×100 where the blank is given by wells without cells (medium only), control is untreated cells (100% viable).

[2] = test system: HeLa cells (cervical cancer); assay: single dose MTT assay, HeLa; format: cell-based; conditions: 10 μM, 48 h, Mean ± SEM of three independent experiments
Description: as §1, §2, §3

[3] = test system: MCF7 cells (breast cancer); assay: single dose MTT assay, MCF7; format: cell-based; conditions: 10 μM, 48 h, Mean ± SEM of three independent experiments
Description: as §1, §2, §3

[4] = test system: MDA-MB-231 cells (breast cancer); assay: single dose MTT assay, MDA-MB-231; format: cell-based; conditions: 10 μM, 48 h, Mean ± SEM of three independent experiments
Description: as §1, §2, §3

[5] = test system: SKOV3 cells (ovarian cancer); assay: single dose MTT assay, SKOV3; format: cell-based; conditions: 10 μM, 48 h, Mean ± SEM of three independent experiments
Description: as §1, §2, §3

| Compound | Anticancer effect on cancer cell lines A2780 (proliferation percentage) [1] | Anticancer effect on cancer cell lines HeLa (proliferation percentage) [2] | Anticancer effect on cancer cell lines MCF7 (proliferation percentage) [3] | Anticancer effect on cancer cell lines MDA-MB-231 (proliferation percentage) [4] | Anticancer effect on cancer cell lines SKOV3 (proliferation percentage) [5] | melting point [°C] |
| --- | --- | --- | --- | --- | --- | --- |
| O=c1nc(-c2c[nH]c3ccccc23)c2c(=O)[nH]c(=O)[nH]c2[nH]1 [Compound 4a, 5-(1H-Indol-3-Yl)Pyrimido[4,5-d]Pyrimidine-2,4,7(1H,3H,8H)-Trione] | 78 ± 3.60 | 57 ± 6.13 | 98 ± 3.15 | 82 ± 1.01 | 79 ± 0.92 | 160 to 162 |
| O=c1nc(-c2c[nH]c3ccccc23)c2c(=O)[nH]c(=S)[nH]c2[nH]1 [Compound 4b, 4-(1H-Indol-3-Yl)-7-Thioxo-7,8-Dihydropyrimido[4,5-d]Pyrimidine-2,5(1H,6H)-Dione] | 82 ± 4.05 | 59 ± 2.91 | 68 ± 4.57 | 61 ± 6.00 | 69 ± 1.31 | 180 to 182 |
| Cn1c(=O)c2c(-c3c[nH]c4ccccc34)nc(=O)[nH]c2n(C)c1=O [Compound 4c, 5-(1H-Indol-3-Yl)-1,3-Dimethylpyrimido[4,5-d]Pyrimidine-2,4,7(1H,3H,8H)-Trione] | 63 ± 1.47 | 19 ± 1.58 | 44 ± 3.90 | 62 ± 1.35 | 57 ± 3.40 | 256 to 258 |
